Source: patent US20060239945A1, “Cleansing composition” (Conopco Inc, d/b/a UNILEVER, priority 2004, published 2006)

Columns and labels:
human skin = test: Skin delivery of resorcinol from product applied to human volunteer forearms; format: in vivo; settings: for Skin Delivery of ER: 2.5% ER, pH 6.5, percentage of initial dose after rinse
Method: Delivery of resorcinol on human skin was assessed through direct application of product to human volunteer forearms. A known dose of the product was applied to the area, and the product was rubbed into the area. The area on the arm was rinsed with a fixed amount of water. The collected rinse liquor was analyzed for resorcinol, and the amount delivered to skin was calculated by subtracting from the dosage applied. This is expressed as a percentage of the initial dose.

[1] = Product stability by visual assessment of color and homogeneity after storage; format: physicochemical; settings: for Color Stability of ER / Color Stability / Homogeneity: 2.5% ER; for Color Stability / Homogeneity: 3 months at ~25° C., visual
Method: Stability of product is evaluated after a storage period of 3 months at ˜25° C. by visual measurement to assess color and homogeneity of product.

[2] = tested on: skin colour of human panelists' face; test: Efficacy on skin-lightening, half-face cleanser use versus placebo cleanser; format: in vivo
Source text: Thirty three human panelists are recruited who are required to use a known amount of the cleansing product on one half of their face. At the same time, the other half was rinsed with a placebo cleanser. Panelists were required to do this for eight weeks. The color of the skin is monitored at regular intervals by trained visual graders and instruments. A final assessment is made at eight weeks. The value for skin-lightening indicated is in comparison to the placebo effect.

[3] = liquid cleanser with 7% neutralised fatty acid (C18/C14/C12 mix), pH 9.2
[4] = liquid cleanser with 7% sodium lauryl sulphate, pH 6.5

SMILES: CCc1ccc(O)cc1O [4 ethyl resorcinol]
- delivery of 4 ethyl resorcinol from the formulation on the skin (human skin; anionic and amphoteric surfactant, or in combination with a nonionic surfactant): significant delivery
- Skin Delivery of ER (human skin; cleanser with SLES (3EO) 4.5%, coca amido propyl betaine 1.47%, decyl polyglucoside 1.5%): 12.4%
- Skin Delivery of ER (human skin; cleanser with SLES (3EO) 6.8%, coca amido propyl betaine 2.2%): 7.7%
- Color Stability of ER ([1]; cleanser with SLES (3EO) 4.5%, coca amido propyl betaine 1.47%, decyl polyglucoside (HLB 13-15) 1.5%, pH 6.5): Good
- Color Stability of ER ([1]; cleanser with SLES (3EO) 6.8%, coca amido propyl betaine 2.2%, pH 6.5): Good
- Color Stability [1, 3]: Dark brown
- Homogeneity [1, 3]: Small precipitate
- Color Stability [1, 4]: Good
- Homogeneity [1, 4]: Good
- stability of 4 ethyl resorcinol in the formulation ([1]; pH of the formulation below 7.5): good
- Efficacy on skin-lightening ([2]; cleanser with SLES (3EO) 6.8%, coca amido propyl betaine 2.2%, 2.5% ER, pH 6.5, eight weeks, in comparison to placebo effect): −0.7
- skin colour (lightening) ([2]; through a cleansing system with anionic and amphoteric surfactant): significantly improves skin colour
